This is an account of results in patent publication US11046945B2, “Labeled glutaminase proteins, isolated glutaminase protein mutants, methods of use, and kit” (CORNELL UNIVERSITY, priority 2013, dated 2021).

Changes are numbered by the printed parent chain.

In test [1] the test system is Dbl-transformed MEFs. As to conditions: adapted from Wang et al. 2010; cited from earlier work.
The target of test [2] is T1, 488-K316E-D391K-R459E-GAC (Mus musculus, UniProt D3Z7P3, D391K/K316E/R459E).
T1 construct: plasmid (residues 72-603 for GAC, 72-674 for KGA); His-tag with thrombin cleavage site (N, cleaved yes); made in house; host or cells: pET23a vector
T1 sequence (D3Z7P3 72-603 isoform D3Z7P3-2 K316E/D391K/R459E): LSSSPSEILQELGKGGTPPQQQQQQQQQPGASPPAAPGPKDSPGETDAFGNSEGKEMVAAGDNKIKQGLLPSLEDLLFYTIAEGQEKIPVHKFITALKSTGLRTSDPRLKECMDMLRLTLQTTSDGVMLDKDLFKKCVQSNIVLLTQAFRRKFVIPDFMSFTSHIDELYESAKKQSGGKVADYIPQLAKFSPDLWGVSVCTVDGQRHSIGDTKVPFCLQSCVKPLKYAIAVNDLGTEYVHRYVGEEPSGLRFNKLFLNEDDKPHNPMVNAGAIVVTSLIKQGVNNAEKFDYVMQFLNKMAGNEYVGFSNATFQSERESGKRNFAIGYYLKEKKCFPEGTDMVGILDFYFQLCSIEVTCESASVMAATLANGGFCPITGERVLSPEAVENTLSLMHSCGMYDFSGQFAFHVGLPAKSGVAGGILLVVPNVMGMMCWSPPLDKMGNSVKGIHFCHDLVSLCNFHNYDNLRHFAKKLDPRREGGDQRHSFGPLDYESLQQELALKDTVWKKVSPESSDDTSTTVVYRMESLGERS
The test can be described thus: Real-time binding read-out by fluorescence quenching, monomer mutant. As to conditions: 20 nM 488-labeled protein, 968 titration. As for the experimental part: (§1) Real-time fluorescence monitoring of 488-GAC fluorescence and NADH fluorescence was performed on a Varian Carry Eclipse Fluorometer, whereas small molecule inhibition and binding titrations were performed in a 96-well format using Grenier non-binding 96-well plates in a Tecan Saphire absorbance and fluorescence plate reader. Samples for monitoring real time binding of 968 to 488-GAC were prepared by adding 10 μL […] (490 nm excitation/520 nm emission). Similarly, this method was replicated for monitoring real time binding of 968 to KGA and mutant forms of GAC, namely 488-D391K-GAC and 488-K316E-D391K-R459E-GAC. Titrations of 968 with mutant forms of GAC were done in triplicate and quantified by the following equation
(§2) [formula] where F is the normalized fluorescence at given drug concentration (i.e., F/F0), and Fsat is the normalized fluorescence at saturating concentrations of drug, as shown in FIG. 7A. […] 10 nM WT GAC was added and allowed to equilibrate 2 minutes before beginning to monitor fluorescence of 488-GAC (490 nm excitation, 520 nm emission) and NADH fluorescence (340 nm excitation, 490 nm emission). […] The activity of GAC was indirectly measured by the NADH produced by the added glutamate dehydrogenase, which converts the product of glutaminase activity, glutamate, to α-ketoglutarate and ammonia through reducing NAD^+ to NADH. […]

Test [3] has as its target T2, 488-D391K-GAC (Mus musculus, UniProt D3Z7P3, D391K).
T2 construct: plasmid (residues 72-603 for GAC, 72-674 for KGA); His-tag with thrombin cleavage site (N, cleaved yes); made in house; host or cells: pET23a vector
T2 sequence (D3Z7P3 72-603 isoform D3Z7P3-2 D391K): T1 sequence (D3Z7P3 72-603 isoform D3Z7P3-2 K316E/D391K/R459E) with E245K, E388R
The experiment in a line: Real-time binding read-out by fluorescence quenching, dimer mutant. As to conditions: 20 nM 488-labeled protein, 968 titration. As for the experimental part:
as §1, with “10” for “10 μL”
as §2

For the molecule `CN(C)c1ccc(C2Nc3ccc4ccccc4c3C3=C2C(=O)CC(C)(C)C3)cc1Br` (stereo not drawn) [compound 968], in test [1], the “inhibition of the ability of Dbl-transformed MEFs to form foci” value is “dose dependent”. The “binding to monomeric GAC (K316E-D391K-R459E) mutant, relative affinity” value in test [2] is “highest affinity”. The “binding to dimeric GAC (D391K) mutant” value in test [3] is “capable of binding”.
